Experimental data published in patent publication US11129816B2, “Ring-fused thiazolino 2-pyridones in combination with a drug against tuberculosis” (QURETECH BIO AB, priority 2017, dated 2021).

The compounds below were run on Mycobacterium tuberculosis Erdman (assay: Treatment of Mycobacterium tuberculosis Erdman liquid culture with Q203 in the absence or presence of Example 1 (CFU count and ODλ600)). Settings: Sauton's media; Example 1 25 μM or Q203 0.4 μM alone; day 15; compared to DMSO control.
Type: cell-based

| SMILES | ODλ600 value (FIG. 3b) |
| --- | --- |
| O=C(O)[C@@H]1CSc2c(C3CC3)c(Cc3cccc4ccccc34)cc(=O)n21 [Example 1, (3R)-7-Cyclopropyl-6-[(1-naphthyl)methyl]-4-oxo-1-thia-3a-aza-3-indancarboxylic acid] | decrease the ODλ600 value considerably |
| CCc1nc2ccc(Cl)cn2c1C(=O)NCc1ccc(N2CCC(c3ccc(OC(F)(F)F)cc3)CC2)cc1 [Example Q203, 6-chloro-2-ethyl-N-[(4-{4-[4-(trifluoromethoxy)phenyl]piperidin-1-yl}phenyl)methyl]imidazo[1,2-a]pyridine-3-carboxamide, reference compound] | decrease the ODλ600 value considerably |

The compounds below were run on Mtb (assay: Microplate Alamar Blue Assay (MABA)). Settings: Mycobacterium tuberculosis.
Type: cell-based
Description: The IC50 value was measured for the compounds 55-65. The measurement was made in accordance with the Microplate Alamar Blue Assay (MABA) as described by Franzblau, S. G. et al in Tuberculosis (Edinb). 92, 453-88 (2012: The MABA utilizes the dye resazurin, which is dark blue and nonfluorescent in its oxidized form but becomes pink and fluorescent when reduced to resorufin as a result of cellular metabolism. The MABA is commonly used to evaluate the efficacy of compounds in restraining Mtb growth, but also serves as an assay for aerobic respiration. The degree of the color change was monitored and quantified, and performing this assay with a range of compound concentrations allowed for calculating IC50 values for compounds. The IC50 value is defined as the concentration of the compound that inhibits the MABA color change by 50%.

| SMILES | IC50 [µM] |
| --- | --- |
| O=C(O)C1CSc2c(C3CC3)c(-c3nc4ccccc4o3)cc(=O)n21 (stereo not shown) [Example 55, 1H-imidazol-1-ium 7-(benzo[d]oxazol-2-yl)-8-cyclopropyl-5-oxo-3,5-dihydro-2H-thiazolo[3,2-a]pyridine-3-carboxylate] | 39.1 |
| O=C(O)C1CSc2c(C3CC3)c(-c3cc(-c4cccc5ccccc45)no3)cc(=O)n21 (stereo not shown) [Example 56, 1H-imidazol-1-ium 8-cyclopropyl-7-(3-(naphthalen-1-yl)isoxazol-5-yl)-5-oxo-3,5-dihydro-2H-thiazolo[3,2-a]pyridine-3-carboxylate] | 2.53 |
| O=C(O)C1CSc2c(C3CC3)c(-c3cc(-c4cccc(C(F)(F)F)c4)no3)cc(=O)n21 (stereo not shown) [Example 57, 1H-imidazol-1-ium 8-cyclopropyl-5-oxo-7-(3-(3-(trifluoromethyl)phenyl)isoxazol-5-yl)-3,5-dihydro-2H-thiazolo[3,2-a]pyridine-3-carboxylate] | 2.53 |
| O=C(O)C1CSc2c(C3CC3)c(-c3cc(-c4cccs4)no3)cc(=O)n21 (stereo not shown) [Example 58, 1H-imidazol-1-ium 8-cyclopropyl-5-oxo-7-(3-(thiophen-2-yl)isoxazol-5-yl)-3,5-dihydro-2H-thiazolo[3,2-a]pyridine-3-carboxylate] | 28.9 |
| O=C(O)C1CSc2c(C3CC3)c(-c3cc(-c4ccccc4)no3)cc(=O)n21 (stereo not shown) [Example 59, 1H-imidazol-1-ium 8-cyclopropyl-5-oxo-7-(3-phenylisoxazol-5-yl)-3,5-dihydro-2H-thiazolo[3,2-a]pyridine-3-carboxylate] | 15.6 |
| O=C(O)C1CSc2c(-c3cc(-c4ccccc4)no3)c(Cc3cccc4ccccc34)c(Br)c(=O)n21 (stereo not shown) [Example 60, 1H-imidazol-1-ium 6-bromo-7-(naphthalen-1-ylmethyl)-5-oxo-8-(3-phenylisoxazol-5-yl)-3,5-dihydro-2H-thiazolo[3,2-a]pyridine-3-carboxylate] | 4.51 |
| O=C(O)C1CSc2c(C3CC(c4ccccc4)=NO3)c(Cc3cccc4ccccc34)cc(=O)n21 (stereo not shown) [Example 61, 1H-imidazol-1-ium 7-(naphthalen-1-ylmethyl)-5-oxo-8-(3-phenyl-4,5-dihydroisoxazol-5-yl)-3,5-dihydro-2H-thiazolo[3,2-a]pyridine-3-carboxylate] | 82.7 |
| C#Cc1c(Cc2cccc3ccccc23)cc(=O)n2c1SCC2C(=O)O (stereo not shown) [Example 62, 1H-imidazol-1-ium 8-ethynyl-7-(naphthalen-1-ylmethyl)-5-oxo-3,5-dihydro-2H-thiazolo[3,2-a]pyridine-3-carboxylate] | 53.5 |
| O=C(O)C1CSc2c(-c3cc(-c4ccccc4)no3)c(Cc3cccc4ccccc34)cc(=O)n21 (stereo not shown) [Example 63, 1H-imidazol-1-ium 7-(naphthalen-1-ylmethyl)-5-oxo-8-(3-phenylisoxazol-5-yl)-3,5-dihydro-2H-thiazolo[3,2-a]pyridine-3-carboxylate] | 12.7 |
| O=C(O)C1CSc2c(-c3cc(-c4cccc5ccccc45)no3)c(Cc3cccc4ccccc34)cc(=O)n21 (stereo not shown) [Example 64, 1H-imidazol-1-ium 8-(3-(naphthalen-1-yl)isoxazol-5-yl)-7-(naphthalen-1-ylmethyl)-5-oxo-3,5-dihydro-2H-thiazolo[3,2-a]pyridine-3-carboxylate] | 14.4 |
| O=C(O)C1CSc2c(C3CC3)c(Cc3cccc4ccccc34)cc(=O)n21 (stereo not shown) [Example 65, 1H-imidazol-1-ium 8-cyclopropyl-7-(naphthalen-1-ylmethyl)-5-oxo-3,5-dihydro-2H-thiazolo[3,2-a]pyridine-3-carboxylate] | 8.47 |
